Results reported in paper PMC7093416, “Selective USP7 inhibition elicits cancer cell killing through a p53-dependent mechanism” (Scientific Reports, 2020).

Tested on: panel of 484 cancer cell lines
Assay: PRISM cancer cell line profiling, 5 days
Format: cell-based
Parameters: AUC: unit not given beside the values
Description: Cancer cell line profiling was performed using the Broad’s PRISM platform. Cell treatment and data analysis were performed as described in Yu et al[42]. Raw Luminex signal was converted to AUC values for each cell line as described. The resulting AUC profile for each compound was modeled against DepMap using the limma package in R[71]. Because hotspot mutation analysis was performed against DepMap, TP53 annotations in Fig. 6c,d are directly from DepMap.

CN1CCN(CCC(=O)Nc2ccc3c(=O)n(CC4(O)CCN(C(=O)[C@H](CCCNC(=O)c5ccc6c(Cl)c7c(nc6c5)CCCC7)Cc5ccccc5)CC4)cnc3c2)CC1 [XL177B]
AUC (HCC1438_LUNG): 0.9398 | AUC (HCC1588_LUNG): 1.124 | AUC (HCC1806_BREAST): 1.262 | AUC (HCC1937_BREAST): 0.9651 | AUC (HCC4006_LUNG): 1.102 | AUC (HCT15_LARGE_INTESTINE): 1.193 | AUC (HCT116_LARGE_INTESTINE): 1.02 | AUC (HDQP1_BREAST): 0.9999 | AUC (HEC1A_ENDOMETRIUM): 1.104 | AUC (HEC1B_ENDOMETRIUM): 1.096 | AUC (HEC6_ENDOMETRIUM): 1.02 | AUC (HEC59_ENDOMETRIUM): 1.13 | AUC (HEC108_ENDOMETRIUM): 0.935 | AUC (HEC151_ENDOMETRIUM): 0.9419 | AUC (HEC251_ENDOMETRIUM): 0.8279 | AUC (HEC265_ENDOMETRIUM): 0.8825 | AUC (HEP3B217_LIVER): 1.23 | AUC (HEYA8_OVARY): 1.2 | AUC (HGC27_STOMACH): 1.226 | AUC (HLF_LIVER): 0.794 | AUC (HMC18_BREAST): 1.228 | AUC (HOS_BONE): 1.145 | AUC (HPAC_PANCREAS): 1.288 | AUC (HS294T_SKIN): 1.038 | AUC (HS618T_LUNG): 1.097 | AUC (HS729_SOFT_TISSUE): 1.1211 | AUC (HS766T_PANCREAS): 1.2108 | AUC (HS852T_SKIN): 1.089 | AUC (HS939T_SKIN): 1.116 | AUC (HS944T_SKIN): 1.026 | AUC (HSC2_UPPER_AERODIGESTIVE_TRACT): 1.102 | AUC (HSC3_UPPER_AERODIGESTIVE_TRACT): 1.094 | AUC (HT29_LARGE_INTESTINE): 1.23 | AUC (HT55_LARGE_INTESTINE): 1.212 | AUC (HT144_SKIN): 1.106 | AUC (HT1080_SOFT_TISSUE): 0.9733 | AUC (HT1376_URINARY_TRACT): 0.9173 | AUC (HUCCT1_BILIARY_TRACT): 1.078 | AUC (HUH6_LIVER): 0.9719 | AUC (HUH7_LIVER): 1.132 | AUC (HUH28_BILIARY_TRACT): 1.093 | AUC (HUPT3_PANCREAS): 1.102 | AUC (IALM_LUNG): 1.165 | AUC (IGR1_SKIN): 1.13 | AUC (IGR37_SKIN): 1.06 | AUC (IGROV1_OVARY): 0.9036 | AUC (IM95_STOMACH): 0.9524 | AUC (IPC298_SKIN): 1.071 | AUC (ISHIKAWAHERAKLIO02ER_ENDOMETRIUM): 1.087 | AUC (ISTMES1_PLEURA): 0.902 | AUC (ISTMES2_PLEURA): 1.138 | AUC (J82_URINARY_TRACT): 1.062 | AUC (JHH1_LIVER): 0.9889 | AUC (JHH4_LIVER): 0.8541 | AUC (JHH5_LIVER): 1.201 | AUC (JHH6_LIVER): 1.182 | AUC (JHH7_LIVER): 1.125 | AUC (JHOC5_OVARY): 1.064 | AUC (JHOM1_OVARY): 1.08 | AUC (JHOS2_OVARY): 1.281 | AUC (JHUEM2_ENDOMETRIUM): 0.8483 | AUC (JIMT1_BREAST): 0.9922 | AUC (JMSU1_URINARY_TRACT): 1.004 | AUC (K029AX_SKIN): 1.1273 | AUC (KALS1_CENTRAL_NERVOUS_SYSTEM): 1.102 | AUC (KELLY_AUTONOMIC_GANGLIA): 1.134 | AUC (KMBC2_URINARY_TRACT): 0.9911 | AUC (KMRC1_KIDNEY): 1.146 | AUC (KMRC3_KIDNEY): 1.058 | AUC (KMRC20_KIDNEY): 1.146 | AUC (KNS42_CENTRAL_NERVOUS_SYSTEM): 1.1 | AUC (KNS60_CENTRAL_NERVOUS_SYSTEM): 1.09 | AUC (KNS62_LUNG): 1.118 | AUC (KNS81_CENTRAL_NERVOUS_SYSTEM): 1.075 | AUC (KP2_PANCREAS): 0.9926 | AUC (KP3_PANCREAS): 1.089 | AUC (KP4_PANCREAS): 0.9662 | AUC (KPL1_BREAST): 1.217 | AUC (KU1919_URINARY_TRACT): 0.9667 | AUC (KYSE30_OESOPHAGUS): 1.063 | AUC (KYSE70_OESOPHAGUS): 1.0546 | AUC (KYSE140_OESOPHAGUS): 1.1657 | AUC (KYSE150_OESOPHAGUS): 1.101 | AUC (KYSE180_OESOPHAGUS): 1.135 | AUC (KYSE270_OESOPHAGUS): 1.03 | AUC (KYSE410_OESOPHAGUS): 1.091 | AUC (KYSE510_OESOPHAGUS): 1.034 | AUC (KYSE520_OESOPHAGUS): 1.133 | AUC (L33_PANCREAS): 1.426 | AUC (LC1SQSF_LUNG): 1.115 | AUC (LCLC103H_LUNG): 1.231 | AUC (LI7_LIVER): 0.9601 | AUC (LK2_LUNG): 1.126 | AUC (LMSU_STOMACH): 1.053 | AUC (LN18_CENTRAL_NERVOUS_SYSTEM): 1.129 | AUC (LN229_CENTRAL_NERVOUS_SYSTEM): 1.034 | AUC (LNCAPCLONEFGC_PROSTATE): 0.9173 | AUC (LOUNH91_LUNG): 1.097 | AUC (LOVO_LARGE_INTESTINE): 1.325 | AUC (LOXIMVI_SKIN): 1.09 | AUC (LS180_LARGE_INTESTINE): 1.075 | AUC (LS411N_LARGE_INTESTINE): 1.3262 | AUC (LS513_LARGE_INTESTINE): 1.3335 | AUC (LS1034_LARGE_INTESTINE): 1.506 | AUC (LU99_LUNG): 0.9959 | AUC (LUDLU1_LUNG): 0.9789 | AUC (LXF289_LUNG): 1.119 | AUC (MALME3M_SKIN): 0.9879 | AUC (MCAS_OVARY): 1.03 | AUC (MCF7_BREAST): 1.188 | AUC (MDAMB175VII_BREAST): 1.1488 | AUC (MDAMB231_BREAST): 1.063 | AUC (MDAMB435S_SKIN): 1.117 | AUC (MDAMB436_BREAST): 1.147 | AUC (MDAMB468_BREAST): 1.0692 | AUC (MELHO_SKIN): 1.016 | AUC (MELJUSO_SKIN): 1.072 | AUC (MESSA_SOFT_TISSUE): 0.9027 | AUC (MEWO_SKIN): 1.126 | AUC (MFE280_ENDOMETRIUM): 1.168 | AUC (MFE296_ENDOMETRIUM): 1.031
